BindingDB's records for doi:10.1016/j.bmc.2010.08.049 (University of Wisconsin-Milwaukee, 2010)

Tests used:
[1] = target: GABA A receptor alpha-4/beta-3/gamma-2 (Homo sapiens, UniProt P48169+P18507+P28472); assay: Displacement of [3H]flunitrazepam from human recombinant GABAA alpha-4-beta-3-gamma-2 receptor expressed in HEK cells by liquid scintillation counting
[2] = target: Gamma-aminobutyric acid receptor subunit alpha-6/beta-3/gamma-2 (Homo sapiens, UniProt Q16445+P18507+P28472); assay: Displacement of [3H]flunitrazepam from human recombinant GABAA alpha-6-beta-3-gamma-2 receptor expressed in HEK cells by liquid scintillation counting
Gamma-aminobutyric acid receptor subunit alpha-6/beta-3/gamma-2, sequence (Q16445 whole entry): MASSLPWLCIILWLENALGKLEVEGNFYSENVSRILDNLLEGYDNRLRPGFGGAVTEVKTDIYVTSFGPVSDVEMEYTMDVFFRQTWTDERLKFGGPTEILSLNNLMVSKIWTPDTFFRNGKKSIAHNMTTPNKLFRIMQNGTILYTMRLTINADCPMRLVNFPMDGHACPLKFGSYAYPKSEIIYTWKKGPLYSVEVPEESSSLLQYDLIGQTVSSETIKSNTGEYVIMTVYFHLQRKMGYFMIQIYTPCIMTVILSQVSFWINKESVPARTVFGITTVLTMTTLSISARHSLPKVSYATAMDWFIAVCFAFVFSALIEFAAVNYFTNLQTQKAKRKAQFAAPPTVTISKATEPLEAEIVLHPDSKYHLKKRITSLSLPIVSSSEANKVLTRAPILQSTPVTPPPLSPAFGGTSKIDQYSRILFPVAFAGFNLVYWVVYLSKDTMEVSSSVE
Gamma-aminobutyric acid receptor subunit alpha-6/beta-3/gamma-2, sequence (P18507 as listed by the source): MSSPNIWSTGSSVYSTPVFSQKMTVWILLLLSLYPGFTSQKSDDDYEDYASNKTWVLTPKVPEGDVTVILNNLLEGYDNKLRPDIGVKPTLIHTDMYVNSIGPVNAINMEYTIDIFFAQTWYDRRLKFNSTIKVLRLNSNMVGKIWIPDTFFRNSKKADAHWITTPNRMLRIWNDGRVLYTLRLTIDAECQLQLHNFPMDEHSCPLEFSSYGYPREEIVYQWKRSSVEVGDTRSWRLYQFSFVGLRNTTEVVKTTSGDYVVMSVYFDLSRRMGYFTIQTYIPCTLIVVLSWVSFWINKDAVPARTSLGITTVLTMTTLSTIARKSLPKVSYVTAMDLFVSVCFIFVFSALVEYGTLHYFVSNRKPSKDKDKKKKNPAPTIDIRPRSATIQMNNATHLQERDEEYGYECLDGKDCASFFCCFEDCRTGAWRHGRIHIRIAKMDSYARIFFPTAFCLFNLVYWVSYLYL
Gamma-aminobutyric acid receptor subunit alpha-6/beta-3/gamma-2, sequence (P28472 whole entry): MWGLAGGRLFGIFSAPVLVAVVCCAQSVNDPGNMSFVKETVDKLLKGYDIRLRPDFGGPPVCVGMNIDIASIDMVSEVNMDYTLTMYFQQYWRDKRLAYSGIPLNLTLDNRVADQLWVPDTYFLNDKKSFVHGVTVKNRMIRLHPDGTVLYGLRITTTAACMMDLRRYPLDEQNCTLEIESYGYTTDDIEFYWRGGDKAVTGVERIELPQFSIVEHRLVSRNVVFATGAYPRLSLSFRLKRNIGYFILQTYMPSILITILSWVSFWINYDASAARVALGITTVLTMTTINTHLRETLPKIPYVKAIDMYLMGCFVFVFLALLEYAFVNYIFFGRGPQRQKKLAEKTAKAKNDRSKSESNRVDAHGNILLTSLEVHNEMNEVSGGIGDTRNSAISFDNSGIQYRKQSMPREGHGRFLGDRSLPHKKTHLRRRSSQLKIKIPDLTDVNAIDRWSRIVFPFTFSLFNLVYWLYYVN

GABA A receptor alpha-4/beta-3/gamma-2, sequence (P48169 whole entry): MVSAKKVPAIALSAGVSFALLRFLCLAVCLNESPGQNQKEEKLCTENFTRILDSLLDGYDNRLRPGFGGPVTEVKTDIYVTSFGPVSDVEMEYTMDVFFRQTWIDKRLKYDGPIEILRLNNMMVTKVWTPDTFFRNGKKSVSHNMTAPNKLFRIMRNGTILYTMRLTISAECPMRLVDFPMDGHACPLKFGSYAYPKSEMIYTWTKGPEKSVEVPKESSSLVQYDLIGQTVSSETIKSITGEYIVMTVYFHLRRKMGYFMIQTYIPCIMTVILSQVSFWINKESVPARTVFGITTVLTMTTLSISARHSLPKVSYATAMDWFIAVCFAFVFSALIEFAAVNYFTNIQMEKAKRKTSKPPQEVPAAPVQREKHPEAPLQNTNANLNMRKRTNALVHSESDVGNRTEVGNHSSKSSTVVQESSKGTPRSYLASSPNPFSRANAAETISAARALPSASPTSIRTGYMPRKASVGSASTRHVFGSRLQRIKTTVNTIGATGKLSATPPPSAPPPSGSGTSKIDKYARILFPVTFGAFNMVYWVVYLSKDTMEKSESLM
GABA A receptor alpha-4/beta-3/gamma-2, sequence (P18507 as listed by the source): as the sequence (P18507 as listed by the source) above
GABA A receptor alpha-4/beta-3/gamma-2, sequence (P28472 whole entry): as the sequence (P28472 whole entry) above

| SMILES | Ki [1] [µM] | Ki [2] [µM] |
| --- | --- | --- |
| O=C(OCC(F)(F)F)c1cc2c(cn1)[nH]c1ccc(I)cc12 [2,2,2-trifluoroethyl 6-iodo-9H-pyrido[3,4-b]indole-3-carboxylate] | 2 | 3 |
| CC(C)(C)OC(=O)c1cc2c(cn1)[nH]c1ccc(C#C[Si](C)(C)C)cc12 [6-Trimethylsilanylethynyl-9H-beta-carboline-3-carboxylic acid t-butyl ester] | – | 1 |
| CC(C)(C)OC(=O)c1cc2c(cn1)[nH]c1ccc(-c3ccccc3)cc12 [tert-butyl 6-phenyl-9H-pyrido[3,4-b]indole-3-carboxylate] | – | 5 |
| CCOC(=O)c1cc2c(cn1)[nH]c1ccc(I)cc12 [ethyl 6-iodo-9H-pyrido[3,4-b]indole-3-carboxylate] | 1 | 1 |
| CCOC(=O)c1cc2c(cn1)[nH]c1ccc(C#C[Si](C)(C)C)cc12 [ethyl 6-((trimethylsilyl)ethynyl)-9H-pyrido[3,4-b]indole-3-carboxylate] | 2 | 2 |
| O=C(OCC(F)(F)F)c1cc2c(cn1)[nH]c1ccc(-c3ccco3)cc12 [2,2,2-trifluoroethyl 6-(furan-2-yl)-9H-pyrido[3,4-b]indole-3-carboxylate] | 3 | 2 |
| O=C(OCC(F)(F)F)c1cc2c(cn1)[nH]c1ccc(-c3ccccc3)cc12 [2,2,2-trifluoroethyl 6-phenyl-9H-pyrido[3,4-b]indole-3-carboxylate] | 2 | 2 |
| O=C(OCC(Cl)(Cl)Cl)c1cc2c(cn1)[nH]c1ccccc12 [2,2,2-trichloroethyl 9H-pyrido[3,4-b]indole-3-carboxylate] | 1 | 2 |
| CC(C)(C)OC(=O)c1cc2c(cn1)[nH]c1ccc(F)cc12 [tert-butyl 6-fluoro-9H-pyrido[3,4-b]indole-3-carboxylate] | 1 | 1 |
| CC(C)(C)OC(=O)c1cc2c(cn1)[nH]c1ccccc12 | 1 | – |
| O=C(OC(C(F)(F)F)C(F)(F)F)c1cc2c(cn1)[nH]c1ccc(I)cc12 [1,1,1,3,3,3-hexafluoropropan-2-yl 6-iodo-9H-pyrido[3,4-b]indole-3-carboxylate] | 3 | 3 |
| CC(C)(C)OC(=O)c1cc2c(cn1)[nH]c1ccc(-c3ccco3)cc12 [tert-butyl 6-(furan-2-yl)-9H-pyrido[3,4-b]indole-3-carboxylate] | – | 5 |
| O=C(OC(C(F)(F)F)C(F)(F)F)c1cc2c(cn1)[nH]c1ccccc12 [1,1,1,3,3,3-hexafluoropropan-2-yl 9H-pyrido[3,4-b]indole-3-carboxylate] | 1 | 2 |
| CC(C)(C)OC(=O)c1cc2c(cn1)[nH]c1ccc(C(C)(C)C)cc12 [tert-butyl 6-tert-butyl-9H-pyrido[3,4-b]indole-3-carboxylate] | 1 | 1 |
| O=C(OCC(F)(F)F)c1cc2c(cn1)[nH]c1ccc(-c3cccs3)cc12 [2,2,2-trifluoroethyl 6-(thiophen-2-yl)-9H-pyrido[3,4-b]indole-3-carboxylate] | 2 | 2 |
| C#Cc1ccc2[nH]c3cnc(C(=O)OCC(F)(F)F)cc3c2c1 [2,2,2-trifluoroethyl 6-ethynyl-9H-pyrido[3,4-b]indole-3-carboxylate] | 2 | 2 |
| O=C(Oc1cc(F)c(F)cc1F)c1cc2c(cn1)[nH]c1ccccc12 [2,4,5-trifluorophenyl 9H-pyrido[3,4-b]indole-3-carboxylate] | 3 | 3 |
| CCCOc1cc2c(cn1)[nH]c1ccccc12 [3-propoxy-9H-pyrido[3,4-b]indole] | 1 | – |
| CC(C)COc1cc2c3ccccc3nc-2c[nH]1 | – | 10 |
| CC(C)(C)OC(=O)c1cc2c(cn1)[nH]c1ccc(-c3cccs3)cc12 [tert-butyl 6-(thiophen-2-yl)-9H-pyrido[3,4-b]indole-3-carboxylate] | – | 5 |
| CCOc1cc2c(cn1)[nH]c1ccccc12 [3-ethoxy-9H-pyrido[3,4-b]indole] | – | 1 |
